As a reminder, the IC50 is the midpoint of a concentration-inhibition curve.

Molecules are shown by their SMILES. The source made the active and inactive calls. The calls are words filed in the database; no cut-off is given here.

The test system of series [1] is Mus musculus. The series can be described thus: Anti-osteoporosis activity in ovariectomized BALB/c mouse at 25 to 100 nmol/kg/day, sc assessed as reduction in trabecular bone stiffness. To be noted: dose 25-100 nmol/kg. The series is classed as functional, organism-based.
Series [2] in a line: Toxicity in ovariectomized BALB/c mouse at 25 nmol/kg, sc assessed as effect on morphological changes in pancreas. Format: organism-based. To be noted: in vivo.
Series [3] has as its system Mus musculus. The series can be described thus: Anti-osteoporosis activity in ovariectomized BALB/c mouse at 100 nmol/kg/day, sc assessed as increase in post-yield displacement of cortical bone. The series is classed as functional.
For series [4], the system named is Mus musculus. Briefly: Anti-osteoporosis activity in ovariectomized BALB/c mouse at 100 nmol/kg/day, sc assessed as increase in work-to-fracture of cortical bone. The series is classed as functional.
The test system of series [5] is Mus musculus. The series can be described thus: Anti-osteoporosis activity in ovariectomized BALB/c mouse at 100 nmol/kg/day, sc assessed as increase in ultimate displacement of cortical bone. The series is classed as functional.
Series [6] has as its system Mus musculus. Briefly: Anti-osteoporosis activity in ovariectomized BALB/c mouse at 25 nmol/kg, sc assessed as reduction in trabecular spacing. The series is classed as functional. More on the design: scale not given: the % may be the effect or the level left.
A short description of series [7]: Toxicity in ovariectomized BALB/c mouse at 25 nmol/kg, sc assessed as effect on morphological changes in liver. To be noted: in vivo. Format: organism-based.
Series [8] concerns RAW264.7. Briefly: Inhibition of RANKL-induced osteoclastogenesis in mouse RAW264.7 cells measured after 110 hrs by TRAcP staining based assay. Format: functional, cell-based. To be noted: RAW264.7, 110 h.
In series [9] the test system is Mus musculus. The series can be described thus: Anti-osteoporosis activity in ovariectomized BALB/c mouse at 100 nmol/kg, sc assessed as decrease in augmented acid phosphate content heterogeneity. The series is classed as functional. More on the design: scale not given: the % may be the effect or the level left.
Series [10] has as its system Mus musculus. The series can be described thus: Anti-osteoporosis activity in ovariectomized BALB/c mouse at 25 to 100 nmol/kg/day, sc assessed as effect on cortical bone microarchitecture. The series is classed as functional, organism-based. To be noted: dose 25-100 nmol/kg.
In series [11] the test system is Mus musculus. Briefly: Anti-osteoporosis activity in ovariectomized BALB/c mouse at 100 nmol/kg, sc assessed as decrease in mean phosphate/amide ratio. Format: functional. Set-up: scale not given: the % may be the effect or the level left.
The subject of series [12] is Mus musculus. The series can be described thus: Anti-osteoporosis activity in ovariectomized BALB/c mouse at 100 microg/kg, iv assessed as increase in trabecular bone mass. The series is classed as functional. The note with it: dose 100 µg/kg.
The subject of series [13] is Mus musculus. Briefly: Anti-osteoporosis activity in ovariectomized BALB/c mouse at 100 microg/kg, iv assessed as increase in mineral crystallinity heterogeneity. Format: functional. The note with it: dose 100 µg/kg.
Series [14] in a line: Toxicity in ovariectomized BALB/c mouse assessed as effect on body mass at 100 microg/kg, iv. The note with it: in vivo, 0.1 mg/kg, dose 100 µg/kg.
Series [15] has as its system Mus musculus. The series can be described thus: Anti-osteoporosis activity in ovariectomized BALB/c mouse at 100 microg/kg, iv assessed as effect on cortical bone microarchitecture. The series is classed as functional, organism-based. The note with it: dose 100.0 µg/kg.
Series [16] concerns Mus musculus. Briefly: Anti-osteoporosis activity in ovariectomized BALB/c mouse at 100 microg/kg, iv assessed as increase in trabecular number. Format: functional. The note with it: dose 100 µg/kg.
The test system of series [17] is Mus musculus. The series can be described thus: Anti-osteoporosis activity in ovariectomized BALB/c mouse at 100 microg/kg, iv assessed as reduction in trabecular bone stiffness. Format: functional, organism-based. The note with it: dose 100.0 µg/kg.

As for `CC[C@H](C)[C@H](NC(=O)[C@H](CO)NC(=O)[C@H](Cc1ccccc1)NC(=O)[C@H](CC(=O)O)NC(=O)[C@H](CO)NC(=O)CNC(=O)[C@H](Cc1ccccc1)NC(=O)[C@H](CO)NC(=O)CNC(=O)[C@H](CCC(=O)O)NC(=O)CNC(=O)[C@@H](N)Cc1cnc[nH]1)C(=O)N[C@@H](C)C(=O)N[C@@H](CC(C)C)C(=O)N[C@@H](CC(=O)O)C(=O)N[C@@H](CCCCN)C(=O)N[C@@H](CC(C)C)C(=O)N[C@@H](C)C(=O)N[C@@H](C)C(=O)N[C@@H](CCCNC(=N)N)C(=O)N[C@@H](CC(=O)O)C(=O)N[C@@H](Cc1ccccc1)C(=O)N[C@H](C(=O)N[C@@H](CC(N)=O)C(=O)N[C@@H](Cc1c[nH]c2ccccc12)C(=O)N[C@@H](CC(C)C)C(=O)N[C@@H](CC(C)C)C(=O)N[C@@H](CCC(N)=O)C(=O)N[C@H](C(=O)N[C@@H](CCCCN)C(N)=O)[C@@H](C)O)C(C)C`, the outcome in [1] was Active. Besides, the Activity entry in series [2] is reported as “Non-Toxic”; in series [3], 62%; in [4], 33%; in [5], 33%; in series [6], 17%; in series [7] it was “Non-Toxic”. Moreover, the Activity in [9] is 18%; in [11], 5%. In series [8], this molecule came in with an IC50 of 0.036 nM. Further, the outcome in series [10] was inactive.

In the case of `O.O=P(O)(O)C(O)(Cn1ccnc1)P(=O)(O)O` [ZOLEDRONIC ACID], the Activity in [12] is recorded as 15%; in series [13] it was 21%; in series [14] it was “Non-Toxic”; in [16], 12%. In addition, the result in series [15] was inactive. Moreover, the result in [17] was Active.

The record behind these values is ChEMBL document CHEMBL5052819, “Peptide targeting gip and glp-2 receptors for treating bone disorders” (2020).
